Source: paper PMC5684143, “New melanocortin-like peptide of E. coli can suppress inflammation via the mammalian melanocortin-1 receptor (MC1R): possible endocrine-like function for microbes of the gut” (NPJ Biofilms and Microbiomes, 2017)

Assays:
RAW 264.7 cells [1] = assay: HMGB1-induced TNF release by RAW 264.7 macrophage-like cells; assay type: cell-based, murine
Description: Fig. 1 MECO-1 attenuates HMGB1-induced TNF release by macrophages in culture. Murine macrophage-like RAW 264.7 cells were incubated for up to 24 h with purified recombinant HMGB1 (0.1 mg/ml) in the absence or presence of MECO-1 (Panel a), or alpha-MSH (Panel b), at 10^−10 and 10^−12 M. The levels of TNF in the culture medium were determined by ELISA and expressed as mean ± SEM of two independent experiments (in duplicate). *p < 0.05, **p < 0.01 vs. control (“HMGB1 alone”). […] In panels c and d, cells were incubated with HMGB1 for 6 h with or without MECO-1 or alpha-MSH (10^−16–10^−6 M). Data represent mean ± SEM of three independent experiments performed in duplicate. With 10^−14 M peptide, results were significant at *p < 0.05, and at 10^−12 M or more were typically **p < 0.01. In our experiments, at concentrations of MECO-1, alpha-MSH, and ACTH of around 1 nM and higher, dose response curves often reverse direction, i.e., turn upward. The reversal is more clearly seen in Fig. 2. The mechanism of the reversal is not known. (Desensitization, receptor inactivation, receptor internalization, and dissociation of dimeric receptors are all plausible candidates.) As a result, the shape of the lower part of the curve and the actual inflection point may vary from experiment to experiment. This feature may be missed when results of several experiments are combined
(§1) Murine macrophage-like RAW 264.7 cells were obtained from American Type Culture Collection, and were grown in Dulbecco’s Modified Eagle’s Medium (DMEM, Life Technologies) containing 10% (vol/vol) heat-inactivated fetal bovine serum (FBS, Hyclone Lab. Inc.), penicillin 100 U/ml, and streptomycin 100 μg/ml (BioWhittaker Inc.). Cells were suspended in medium and incubated in 24-well or 48-well tissue-culture plates overnight in a humidified incubator (37 °C, 5% CO2). Growth medium was removed and replaced by Opti-MEM I serum-free medium (Life Technologies) overnight. In the experiments, cell monolayers were stimulated with HMGB1 or LPS, in the absence or presence of MECO-1 or alpha-MSH; cell-free supernatants were assayed for TNF by ELISA or HMGB1 by western blotting.
(§2) Concentrations of TNF and IL-6 were each determined using a commercially available enzyme-linked immunosorbent assay (ELISA) kit (R&D System Inc.) as previously described.[34] The levels of TNF or IL-6 were calculated with reference to standard curves.
Fig. 3 Antibody to MC1R blocks suppressant effect of MECO-1 and alpha-MSH. Murine macrophage-like RAW 264.7 cells were pretreated with specific antibodies (“anti-MC1R Ab”) against melanocortin-1 receptor (MC1R) for 10 min prior to addition of HMGB1 in the absence or presence of MECO-1 or alpha-MSH at 10^−12 M. At 6 h, the TNF content of the cell-free medium was determined by ELISA, and expressed as mean ± SEM of two independent experiments performed in duplicate. ACTH at the same concentration gave results that were indistinguishable from those of alpha-MSH and MECO-1 (data not shown)

RAW 264.7 cells [2] = assay: Poly I:C-induced TNF release by RAW 264.7 cells; assay type: cell-based, murine; conditions: peptide 10^−15 to 10^−9 M; reduced effects above that
Description: as §1, §2
Fig. 2 Cytokine-induced TNF release inhibited by MECO-1. a Lipopolysaccharide (LPS), derived from the cell wall of Gram-negative bacteria, is a TLR4 and TLR2 agonist. RAW 264.7 cells were treated with MECO-1 and LPS simultaneously and incubated overnight. Supernatants were tested for TNF with ELISA. b Poly I:C, synthetic double stranded RNA, is recognized by TLR3. […]

[3] = tested on: human peripheral blood mononuclear cells (PBMC); assay: HMGB1-induced TNF release by human PBMC-derived macrophages; assay type: cell-based; conditions: differentiated human macrophages; HMGB1 6 hours; ELISA; three independent experiments in duplicate
Description: Human PBMC were isolated by density gradient through Ficoll-Paque^TM PLUS centrifugation (Amersham Pharmacia Biotech), and suspended in RPMI 1640 containing 10% (vol/vol) heat-inactivated human serum (BioWhittaker Inc.), penicillin 100 U/ml, and streptomycin 100 μg/ml, and incubated at 37 °C in a humidified incubator with 5% CO2 atmosphere overnight. Non-adherent cells were discarded. Adherent monocytes were washed twice with PBS and were then suspended in 12-well and 24-well tissue culture plates and incubated in the same medium but now enriched with 2.5 ng/ml macrophage colony-stimulating factor for 5–7 days.[33] […]
as §2
Human peripheral blood mononuclear cells (PBMC) were isolated by density gradient centrifugation through Ficoll-PaqueTM PLUS, and cultured for 5-7 days in medium containing macrophage colony-stimulating factor (2.5 ng/ml). […] The content of TNF in the cell-free medium was determined by ELISA and expressed as mean ± SEM of three independent experiments performed in duplicate. *p< 0.05, **p< 0.01 vs. control (=HMGB1 alone without added melanocortin peptide).

alpha-melanocyte-stimulating hormone [alpha-MSH]
peptide concentration at which significant effects on HMGB1-induced TNF release were noted (RAW 264.7 cells [1]; 6 h incubation, dose range 10^−16–10^−6 M, three independent experiments in duplicate, p < 0.05): 10^−14 M | inhibition of HMGB-1-induced TNF release (RAW 264.7 cells [1]; Fig. 2d dose response, RAW 264.7 cells): up to 80% | TNF accumulation with HMGB1 on co-incubation with peptide (RAW 264.7 cells [1]; peptide 10^−12–10^−8 M): substantially reduced | HMGB-1-stimulated TNF-alpha release (RAW 264.7 cells [1]; peptide at 1 pM and 100 pM, 4 to 16 h after HMGB-1, HMGB1 0.1 mg/ml, ELISA, two independent experiments in duplicate): blunted substantially | inhibition of Poly I:C-induced TNF release (RAW 264.7 cells [2]): up to 90% | attenuation of HMGB-1-induced TNF release [3]: significant effects in the picomolar range
